The source of these data is PMC7176092, “Development of the first in vivo GPR17 ligand through an iterative drug discovery pipeline: A novel disease-modifying strategy for multiple sclerosis” (PLoS ONE, 2020).

“And” between values parts separate entries of the source, which are not always exact repeats. Equal values may be shown once. Read-outs that look alike come from different tables or passages of the source.

The target in series [1] is T1, human GPR17 (Homo sapiens, UniProt Q13304).
T1 construct: HA; expressed in transfected cells
The experiment in a line: [35S]GTPγS binding assay. It counts as biochemical. On the procedure:
[^35S]GTPγS binding assays were carried out as previously described. Briefly, control and astrocytoma 1321N1 cells stably transfected with human pcDNA3.1 (control cells) and human HA-tag GPR17 were homogenized in 5 mM Tris/HCl and 2 mM EDTA (pH 7.4) and centrifuged at 48,000g for 15 min at 4°C. The resulting pellets were washed in 50 mM Tris/HCl and 10 mM MgCl2 (pH 7.4). After protein dosage, aliquots of cell membranes were incubated with increasing concentrations of each investigated ligand (1 pM–10 μM) and GTPγS binding to activated G-proteins was quantified as previously described. Compounds were purchased from two external providers, i.e., Ambinter (Ambinter c/o Greenpharma, Orléans, France http://www.ambinter.com/) and Asinex (http://www.asinex.com/).
For analysis and graphic presentation of [^35S]GTPγS binding data, a nonlinear multipurpose curve fitting computer program (Graph-Pad Prism) was used. All data are presented as the mean ± SEM of three different experiments.
The selected 15 molecules were evaluated in our in-house [^35S]GTPγS functional assay in membranes from cells transfected with human GPR17. […] Moreover, this assay has been already successfully used in the past to measure the ability of both endogenous and novel synthetic compounds to activate GPR17 [25, 31]. All tested molecules were able to potently activate GPR17 with nanomolar/sub-nanomolar affinities. Concentration-response curves obtained for each selected compound are reported in S4 Fig.
(GTPγS resists hydrolysis and so accumulates on activated G proteins.)

Series [2] concerns OPC-DRG co-cultures. In words: In vitro myelination assay. In kind it is cell-based, rat OPCs, mouse DRG. Conditions: 10 nM; CTRL 100%; mean ± S.E.M. How it is done:
OPC-DRG co-cultures were prepared according to a previously described protocol.
DRG explants from E14.5 mice were directly put in culture after being plucked off from embryo spinal cords. Then, they were grown in Neurobasal medium (Life Technologies) in presence of 100 ng/ml nerve growth factor (NGF, Sigma-Aldrich), and in presence of 10 μM fluorodeoxyuridine (FUDR, Sigma-Aldrich) in order to remove all non-neuronal cells.
Purified primary rat OPCs were obtained from mixed glial cultures by orbital shaking for 3 hours. […]
At day 15, OPC/DRG co-cultures treated with either the selected compounds or the vehicle were fixed and treated with rat anti-MBP (Millipore), mouse anti-SMI 31 and mouse anti-SMI 32 (Cell Signaling), followed by the secondary goat anti-rat/-mouse antibody, conjugated to Alexa Fluor 555 or Alexa Fluor 488 (Life Technologies). The quantification of myelin segments was performed following a previously described protocol with ZEISS LSM Image Browser by acquiring 6 random fields of 4–5 coverslips for each experimental condition. […] The amount of myelin per axon (myelination index) was calculated as the ratio between the white pixels area and the green pixels area. […]

The nature of series [3]: In vivo mouse DMPK study, single 1 mg/kg subcutaneous dose. On the procedure: In vivo DMPK studies were performed as an external service by Aptuit (Verona, Italy) according to standard procedures.
Two compounds were tested in a single dose pharmacokinetic (PK) study in mouse, in which a 1 mg/kg single dose solution (15% Ethanol, 85% PEG400) was administered by subcutaneous injection to naïve CD1 male mice from accredited supplier (n = 3), weighed prior to dosing. Blood samples were collected for 8 time-points (0.25, 0.50, 1, 2, 4, 6, 8, 24 hours).
Plasma samples were prepared and diluted according standard in-house procedures and stored at approximately -20°C, pending analysis. Briefly, blood samples were collected into tubes containing anticoagulant (K3EDTA), stored on ice and centrifuged to prepare plasma within 2 hours of collection. Plasma samples were diluted in Hepes Buffer and deproteinised using CH3CN containing rolipram as internal reference compound for positive ion mode, according standard procedure (20 ng/ml). After vortexing and centrifugation (3000 rpm per 10 min), sample supernatants were transferred in 96 well plate and diluted with water for analysis.
Blood concentrations of the tested compounds and their metabolites were detected through Liquid Chromatography-tandem Mass Spectrometry (QTRAP® 4000 LC-MS/MS System, Sciex). The results for each test compound in plasma were subjected to non-compartmental PK analysis using WinNonlin Phoenix v.6.3 for generation of appropriate PK parameters, reported along with graphical representation of the mean plasma concentration profiles over time.
At 24 hours, animals were sacrificed, and brains were collected and processed for measuring compound concentrations through mass spectrometry.

Where [4] appears, read: mouse, sc, plasma, 1 mg/kg s.c. single dose, CD1 male mice.

T1 sequence (Q13304 29-367): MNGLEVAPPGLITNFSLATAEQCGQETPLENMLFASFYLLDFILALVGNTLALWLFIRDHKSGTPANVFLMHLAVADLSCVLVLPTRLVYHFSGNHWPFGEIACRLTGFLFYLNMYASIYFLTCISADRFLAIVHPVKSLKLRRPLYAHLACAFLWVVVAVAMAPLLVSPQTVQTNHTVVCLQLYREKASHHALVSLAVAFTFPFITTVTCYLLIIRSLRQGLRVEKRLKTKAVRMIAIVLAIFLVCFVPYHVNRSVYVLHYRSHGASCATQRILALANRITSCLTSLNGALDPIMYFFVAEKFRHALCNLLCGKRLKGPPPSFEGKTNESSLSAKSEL

As a reminder, the EC50 is the concentration that produces a half-maximal response. Higher therefore signals a need for much substance. By AUC(0-t) is commonly meant the area under the concentration-time curve up to a stated or last time point. A higher AUC(0-t) goes with more exposure. For orientation: Cmax means the peak of the concentration-time curve. What is called Tmax is the time from dosing to the highest level. For orientation: half-life means the time needed for the level to fall by half in the phase considered. In series [1] (membranes of 1321N1 cells transfected with human GPR17, mean ± SEM of 3 experiments), `Cc1cccc(NC(=O)CN2C(=O)CC(c3ccccc3)=Nc3ccccc32)c1C` [Compound 18] returned an EC50 of 1.68 ± 0.1 nM. Besides, the “% Emax (ratio vs Emax of the standard)” value in series [1] (standard LTC4 50 nM set to 100% (¶ compounds)) was determined as 104.6%. Further, in series [1] (vs basal, mean ± SEM), the “Emax (% vs basal)” value stood at 147.5 ± 5.8%. Also, the “Myelination Index” value in series [2] amounted to 144.7 ± 14.28%. The “Plasma concentration, individual mice” value in series [3] (0.50 h, 1 mg/kg s.c., 1 mg/kg) was 29.4 ng/mL and 23.0 ng/mL; in series [3] (1.00 h, 1 mg/kg s.c., 1 mg/kg), 25.5 ng/mL and 30.8 ng/mL; in series [3] (2.00 h, 1 mg/kg s.c., 1 mg/kg) it was 6.2 ng/mL and 13.0 ng/mL and 13.3 ng/mL; in series [3] (4.00 h, 1 mg/kg s.c., 1 mg/kg), 0.7 ng/mL and 2.5 ng/mL and 1.5 ng/mL. For the same compound, the concentration at 0.5 h in series [3] (male, CD1, mouse, plasma, sc, 1 mg/kg, 0.50 h, 1 mg/kg s.c., n=3 mice, read-out: Plasma concentration, Mean) amounted to 23.3 ng/mL; in series [3] (male, CD1, mouse, plasma, sc, 1 mg/kg, 0.50 h, 1 mg/kg s.c., read-out: Plasma concentration, individual mice), 17.4 ng/mL. Also, the concentration at 1 h in series [3] (male, CD1, mouse, plasma, sc, 1 mg/kg, 1.00 h, 1 mg/kg s.c., n=3 mice, read-out: Plasma concentration, Mean) was determined as 25.7 ng/mL; in series [3] (male, CD1, mouse, plasma, sc, 1 mg/kg, 1.00 h, 1 mg/kg s.c., read-out: Plasma concentration, individual mice) it was 20.7 ng/mL. In addition, in series [3] (male, CD1, mouse, plasma, sc, 1 mg/kg, 2.00 h, 1 mg/kg s.c., n=3 mice), the concentration at 2 h stood at 10.8 ng/mL. Also, the concentration at 4 h in series [3] (male, CD1, mouse, plasma, sc, 1 mg/kg, 4.00 h, 1 mg/kg s.c., read-out: Plasma concentration, Mean) came to 1.6 ng/mL; in series [3] (male, CD1, mouse, plasma, sc, 1 mg/kg, plasma, 1 mg/kg s.c. single dose, CD1 male mice, read-out: Clast), 1 ng/mL. Besides, the concentration at 6 h in series [3] (male, CD1, mouse, plasma, sc, 1 mg/kg, 6.00 h, 1 mg/kg s.c., read-out: Plasma concentration, individual mice) worked out at 0.8 ng/mL. This compound gave an AUC(0-t) in series [3] (setting [4]) of 46.7 ng·h/mL. For the same compound, the Cmax in series [3] (setting [4]) is 26.4 ng/mL. Also, the Tmax in series [3] (setting [4]) turned out to be 60 min. In addition, the half-life in series [3] (setting [4]) is 45.5 min. In addition, the “Metabolites found in vivo” value in series [3] (plasma after s.c. administration in mice) was 5. In series [3] (plasma, 1 mg/kg s.c. single dose, CD1 male mice), the Tlast stood at 4.00 h.
